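Five compound concentrations were applied to cells in 96-well plates for 48 hours; endpoints were derived by simple linear interpolation of the resulting dose-response curve. GI50 marks 50% less growth.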 Activity calls are given as the source filed them. No stated cut-off is given here; in the data, active = GI50 up to about 1.1 µM and inactive = higher.
Columns and labels:
Test in all cases: inhibition of tumour cell growth, NCI panel, 48 h
[1] = tested on: SNB-19
[2] = tested on: SNB-78
[3] = tested on: UACC-62
[4] = tested on: SNB-75
[5] = tested on: A498
[6] = tested on: NCI-H460
[7] = tested on: OVCAR-3
[8] = tested on: A549
[9] = tested on: SK-MEL-5
[10] = tested on: KM12
[11] = tested on: DMS-273
[12] = tested on: DLD-1
[13] = tested on: SW-620
[14] = tested on: SF-539
[15] = tested on: TK-10
[16] = tested on: M19-MEL
[17] = tested on: ACHN
[18] = tested on: HCT-116
[19] = tested on: HCT-15
[20] = tested on: UO-31
[21] = tested on: OVCAR-4
[22] = tested on: HL-60
[23] = tested on: HOP-62
[24] = tested on: SK-MEL-2
[25] = tested on: SK-OV-3
[26] = tested on: CAKI-1
[27] = tested on: 786-0
[28] = tested on: NCI-H23
[29] = tested on: U-251
[30] = tested on: XF498
[31] = tested on: HT-29
[32] = tested on: K562
[33] = tested on: CCRF-CEM
[34] = tested on: SF-268
[35] = tested on: SK-MEL-28
[36] = tested on: LXFL 529
[37] = tested on: RXF 393
[38] = tested on: SN12C
[39] = tested on: NCI-H226
[40] = tested on: EKVX
[41] = tested on: SF-295
[42] = tested on: OVCAR-5
[43] = tested on: OVCAR-8
[44] = tested on: UACC-257
[45] = tested on: SR
[46] = tested on: M14
[47] = tested on: MOLT-4
[48] = tested on: DMS-114
[49] = tested on: NCI-H522
[50] = tested on: IGROV-1
[51] = tested on: Malme-3M
[52] = tested on: HOP-18
[53] = tested on: HOP-92
[54] = tested on: RPMI-8226
[55] = tested on: LOX IMVI
[56] = tested on: COLO 205
[57] = tested on: HCC 2998

SMILES: CCOC(=O)C1CCCCN1C(=O)OCc1ccccc1 (stereo not drawn)
- GI50 [1]: > 100 µM (inactive)
- GI50 [2]: > 100 µM (inactive)
- GI50 [3]: > 100 µM (inactive)
- GI50 [4]: > 100 µM (inactive)
- GI50 [5]: > 100 µM (inactive)
- GI50 [6]: > 100 µM (inactive)
- GI50 [7]: > 100 µM (inactive)
- GI50 [8]: > 100 µM (inactive)
- GI50 [9]: > 100 µM (inactive)
- GI50 [10]: > 100 µM (inactive)
- GI50 [11]: > 100 µM (inactive)
- GI50 [12]: > 100 µM (inactive)
- GI50 [13]: > 100 µM (inactive)
- GI50 [14]: > 100 µM (inactive)
- GI50 [15]: > 100 µM (inactive)
- GI50 [16]: > 100 µM (inactive)
- GI50 [17]: > 100 µM (inactive)
- GI50 [18]: > 100 µM (inactive)
- GI50 [19]: > 100 µM
- GI50 [20]: 99.8 µM (inactive)
- GI50 [21]: > 100 µM (inactive)
- GI50 [22]: 41 µM (inactive)
- GI50 [23]: > 100 µM (inactive)
- GI50 [24]: > 100 µM (inactive)
- GI50 [25]: > 100 µM (inactive)
- GI50 [26]: > 100 µM (inactive)
- GI50 [27]: > 100 µM (inactive)
- GI50 [28]: 78.3 µM (inactive)
- GI50 [29]: 86.1 µM (inactive)
- GI50 [30]: 14.2 µM (inactive)
- GI50 [31]: > 100 µM (inactive)
- GI50 [32]: > 100 µM (inactive)
- GI50 [33]: > 100 µM (inactive)
- GI50 [34]: > 100 µM (inactive)
- GI50 [35]: > 100 µM (inactive)
- GI50 [36]: > 100 µM (inactive)
- GI50 [37]: > 100 µM (inactive)
- GI50 [38]: > 100 µM (inactive)
- GI50 [39]: 27.3 µM (inactive)
- GI50 [40]: > 100 µM (inactive)
- GI50 [41]: > 100 µM (inactive)
- GI50 [42]: > 100 µM (inactive)
- GI50 [43]: > 100 µM (inactive)
- GI50 [44]: > 100 µM (inactive)
- GI50 [45]: > 100 µM (inactive)
- GI50 [46]: > 100 µM (inactive)
- GI50 [47]: > 100 µM (inactive)
- GI50 [48]: 97.7 µM (inactive)
- GI50 [49]: > 100 µM (inactive)

SMILES: CCCC(=O)OCC(O)CO (stereo not drawn)
- GI50 [2]: > 5000 µM (inactive)
- GI50 [3]: 2170 µM (inactive)
- GI50 [4]: > 5000 µM (inactive)
- GI50 [6]: 4570 µM (inactive)
- GI50 [50]: > 5000 µM (inactive)
- GI50 [8]: > 5000 µM (inactive)
- GI50 [9]: 4970 µM (inactive)
- GI50 [10]: > 5000 µM (inactive)
- GI50 [51]: 3610 µM (inactive)
- GI50 [11]: 4040 µM (inactive)
- GI50 [12]: > 5000 µM (inactive)
- GI50 [13]: > 5000 µM (inactive)
- GI50 [14]: > 5000 µM (inactive)
- GI50 [15]: 1570 µM (inactive)
- GI50 [16]: > 5000 µM (inactive)
- GI50 [52]: 1730 µM (inactive)
- GI50 [17]: 4830 µM (inactive)
- GI50 [18]: > 5000 µM (inactive)
- GI50 [19]: > 5000 µM
- GI50 [53]: 3080 µM (inactive)
- GI50 [20]: 2860 µM (inactive)
- GI50 [21]: > 5000 µM (inactive)
- GI50 [22]: 2920 µM (inactive)
- GI50 [23]: > 5000 µM (inactive)
- GI50 [24]: 3780 µM (inactive)
- GI50 [54]: 2990 µM (inactive)
- GI50 [25]: 4970 µM (inactive)
- GI50 [26]: 2040 µM (inactive)
- GI50 [27]: > 5000 µM (inactive)
- GI50 [28]: > 5000 µM (inactive)
- GI50 [29]: > 5000 µM (inactive)
- GI50 [55]: > 5000 µM (inactive)
- GI50 [31]: > 5000 µM (inactive)
- GI50 [32]: 4880 µM (inactive)
- GI50 [33]: 4500 µM (inactive)
- GI50 [34]: > 5000 µM (inactive)
- GI50 [35]: > 5000 µM (inactive)
- GI50 [36]: > 5000 µM (inactive)
- GI50 [37]: 3090 µM (inactive)
- GI50 [56]: > 5000 µM (inactive)
- GI50 [38]: > 5000 µM (inactive)
- GI50 [39]: > 5000 µM (inactive)
- GI50 [41]: > 5000 µM (inactive)
- GI50 [42]: 2810 µM (inactive)
- GI50 [43]: 2900 µM (inactive)
- GI50 [44]: > 5000 µM (inactive)
- GI50 [45]: > 5000 µM (inactive)
- GI50 [46]: > 5000 µM (inactive)
- GI50 [47]: > 5000 µM (inactive)
- GI50 [48]: > 5000 µM (inactive)
- GI50 [49]: 3740 µM (inactive)

SMILES: Cc1[nH]c(=O)nc(N/N=C/c2ccc(O)cc2)c1C(=O)Nc1ccc(O)cc1
- GI50 [2]: 72.8 µM (inactive)
- GI50 [3]: > 100 µM (inactive)
- GI50 [4]: > 100 µM (inactive)
- GI50 [5]: > 100 µM (inactive)
- GI50 [6]: > 100 µM (inactive)
- GI50 [50]: > 100 µM (inactive)
- GI50 [51]: > 100 µM (inactive)
- GI50 [11]: > 100 µM (inactive)
- GI50 [12]: > 100 µM (inactive)
- GI50 [14]: > 100 µM (inactive)
- GI50 [16]: > 100 µM (inactive)
- GI50 [18]: > 100 µM (inactive)
- GI50 [53]: > 100 µM (inactive)
- GI50 [20]: > 100 µM (inactive)
- GI50 [21]: > 100 µM (inactive)
- GI50 [22]: > 100 µM (inactive)
- GI50 [23]: > 100 µM (inactive)
- GI50 [24]: > 100 µM (inactive)
- GI50 [54]: > 100 µM (inactive)
- GI50 [25]: > 100 µM (inactive)
- GI50 [26]: > 100 µM (inactive)
- GI50 [27]: > 100 µM (inactive)
- GI50 [28]: > 100 µM (inactive)
- GI50 [30]: > 100 µM (inactive)
- GI50 [32]: > 100 µM (inactive)
- GI50 [33]: > 100 µM (inactive)
- GI50 [34]: > 100 µM (inactive)
- GI50 [35]: > 100 µM (inactive)
- GI50 [36]: > 100 µM (inactive)
- GI50 [56]: > 100 µM (inactive)
- GI50 [38]: > 100 µM (inactive)
- GI50 [39]: > 100 µM (inactive)
- GI50 [57]: > 100 µM (inactive)
- GI50 [45]: > 100 µM (inactive)
- GI50 [46]: > 100 µM (inactive)
- GI50 [47]: > 100 µM (inactive)
- GI50 [48]: > 100 µM (inactive)
- GI50 [49]: > 100 µM (inactive)

From ChEMBL document CHEMBL1201862, “PubChem BioAssay data set” (2004)
